Results from ChEMBL document CHEMBL4219081, “Discovery of 1,2,3,4-tetrahydropyrimido[1,2-a]benzimidazoles as novel class of corticotropin releasing factor 1 receptor antagonists” (Bioorg Med Chem, 2018).
In brackets after ≈: the same amount, converted by molar mass.

Tests used:
[1] = Lipophilicity, log D of the compound at pH 7.4; type: physicochemical; details: buffer
[2] = Solubility of the compound in JP2 buffer at pH 6.8 at 10 mmol/L; type: physicochemical
[3] = Oral bioavailability in rat at 1 mg/kg administered as cassette dose; type: ADME, organism-based; details: in vivo
[4] = Kinetic solubility in PBS; type: physicochemical; details: read-out: Kinetic_solubility
[5] = Oral bioavailability in rat at 5 mg/kg administered as cassette dose; type: ADME, organism-based; details: in vivo

Compound	logD [1]	solubility [2]	bioavailability [3]	solubility kinetic [4]	bioavailability [5]
COc1nc(C)c(N2CCCn3c2nc2c(Cl)ccc(C(OC(F)F)C(F)(F)F)c23)c(C)n1 (racemic)	3.08	54 µg/mL (≈ 110 µM)			
CCN(CC)c1ccc(Cl)c2nc3n(c12)CCCN3c1ccc(Cl)cc1Cl	5.25	< 0.06 µg/mL	4.1%		
CCC(=O)c1ccc(Cl)c2nc3n(c12)CCCN3c1ccc(Cl)cc1Cl	4.01				
CCC(OC)c1ccc(Cl)c2nc3n(c12)CCCN3c1ccc(Cl)cc1Cl (configuration not stated)	4.38				
CCc1nc(C)nc(CC)c1N1CCCn2c1nc1c(Cl)ccc(C(OC(F)F)C(F)(F)F)c12 (racemic)	3.52	46 µg/mL (≈ 91.3 µM)			
COc1nc(C)nc(OC)c1N1CCCn2c1nc1c(Cl)ccc(C(OC(F)F)C(F)(F)F)c12 (racemic)	3.71	14 µg/mL (≈ 27.6 µM)			
CCc1nc(C)c(N2CCCn3c2nc2c(Cl)ccc(C(OC(F)F)C(F)(F)F)c23)c(C)n1 (racemic)	3.21	37 µg/mL (≈ 75.5 µM)			

Second part, the molecule after the results:

logD [1]	solubility [2]	bioavailability [3]	solubility kinetic [4]	bioavailability [5]	Compound
2.87	71 µg/mL (≈ 149 µM)				Cc1nc(C)c(N2CCCn3c2nc2c(Cl)ccc(C(OC(F)F)C(F)(F)F)c23)c(C)n1 (racemic)
3.53					CCC(c1ccc(Cl)c2nc3n(c12)CCCN3c1ccc(Cl)cc1Cl)n1ccnc1 (configuration not stated)
3.18			55 µg/mL (≈ 112 µM)	68%	COc1nc(C)c(N2CCCn3c2nc2c(Cl)ccc([C@@H](OC(F)F)C(F)(F)F)c23)c(C)n1
3.69					CCC(C#N)c1ccc(Cl)c2nc3n(c12)CCCN3c1ccc(Cl)cc1Cl (configuration not stated)
4.3	< 0.09 µg/mL				FC(F)OC(c1ccc(Cl)c2nc3n(c12)CCCN3c1ccc(Cl)cc1Cl)C(F)(F)F (racemic)
3.57					CCC(O)c1ccc(Cl)c2nc3n(c12)CCCN3c1ccc(Cl)cc1Cl (configuration not stated)
3.76	1.5 µg/mL (≈ 3.15 µM)				COc1ccc(N2CCCn3c2nc2c(Cl)ccc(C(OC(F)F)C(F)(F)F)c23)c(C)c1 (racemic)
3.43	17 µg/mL (≈ 35.7 µM)				COc1ccc(N2CCCn3c2nc2c(Cl)ccc(C(OC(F)F)C(F)(F)F)c23)c(C)n1 (racemic)
